# Results from patent US20240216369A1, “THE USE OF A SPLICING MODULATOR FOR A TREATMENT SLOWING PROGRESSION OF HUNTINGTON'S DISEASE” (Novartis AG, priority 2019, published 2024).
# Entries after “also recorded” stand apart in the source; their conditions may differ.
# Key:
# HTT transcript [1] = experiment: In vitro evaluation in SH-SY5Y cells: HTT transcript by quantitative PCR; format: cell-based, human; conditions: 24 hours
# Protocol: Cultured human neuroblastoma (SH-SY5Y cell line) cells were treated at doses ranging from 5 nM-125 nM for 24 hours (for transcript evaluation) or 48 hours (for protein evaluation). RNA was quantified by Nanodrop 2000 (Thermo Scientific). cDNAs were synthesized from 140-400 ng RNA using Maxima First strand cDNA synthesis kit using a mix of oligo dT and random hexamers (Thermo Scientific) in 20 uL reaction at 25° C. for 10 min, 50° C. for 15 min then 85° C. for 5 min. Quantitative PCR was performed using Taqman Fast Advanced master mix (Thermo Scientific) in 20 uL with 4 uL of cDNA reaction and primers specific for each genes. The PCR steps were as follows: 95° C. for 20 sec then 40 cycles of 95° C. for 1 sec, 55° C. for 20 sec. The sequence of primers were, for WT human HTT, forward, 5′-[…]-3′ (SEQ ID NO: 1); reverse, 5′-[…]-3′ (SEQ ID NO: 2) and sequence of probe was 56-FAM/TTG TGA AAT/ZEN/TCG TGG TGG CAA CCC/3IABKFQ/(SEQ ID NO: 8), for HTT novel exon, forward, 5′-[…]-3′ (SEQ ID NO: 3); reverse, 5′-[…]-3′ (SEQ ID NO: 4) and sequence of probe/56-FAM/AAT TCG TGG/ZEN/TGG CAA CCC TTG AGA/3IABKFQ/(SEQ ID NO: 7). Relative quantification of gene expression was performed using 2-AACT method. Fold changes in the mRNA expression level was calculated following normalization to […] glucuronidase beta (Gusb) as an endogenous reference (FIGS. 2a and 2b).
# HTT transcript [2] = experiment: Single oral dose in BacHD mice: HTT transcripts in brain and blood (qPCR); format: in vivo
# Protocol: Twenty-eight BacHD mice (FVB/N-Tg(HTT*97Q)|Xwy/J transgenic mice—Jackson Laboratories) were used for the experiment. Animal protocols were approved by the Children's Hospital of Philadelphia Institutional Animal Care and use Committee. Mice were housed in a temperature-controlled environment on a 12-h light/dark cycle. Food and water were provided ad libitum.
# A single dose of branaplam or vehicle solution was administered by oral gavage. Mice were divided in seven groups (n=4 mice/group) and treated with branaplam (10 mg/kg—2 groups) and 50 mg/kg—3 groups), or vehicle (2 groups) as control. Mice were firmly restrained by grasping the loose skin to immobilize the head, maintained in a vertical position and a 22- to 26-gauge gavage needle was placed in the side of the mouth. The needle was guided following the roof of the mouth into the esophagus and allowed to gently enter in the stomach. The amount of branaplam or vehicle administrated to each mouse was based on the weight recorded before treatment.
# At 8 h, 24 h (vehicle and branaplam 10 mg/kg & 50 mg/kg), and 48 h (branaplam 50 mg/kg) after oral gavage, blood and tissue samples were obtained for PK and PD analysis. Mice were anesthetized with isoflurane and blood was obtained via submandibular vein bleeds and collected for RNA extraction (PD analysis) using RNAprotect Animal Blood Tubes, and plasma (PK analysis) using K2EDTA coated tubes. Cells were removed from plasma by centrifugation for 10 min at 2000×g at 4° C., and plasma samples were stored at −80° C. Following blood collection, mice were anesthetized with a lethal dose of ketamine/xylazine ([…] of a 10 mg:1 mg), and perfused with 18 ml of 0.9% cold saline mixed with 2 ml of RNAlater (Ambion) solution for tissue collection. Liver, skeletal muscle, cerebrum, and cerebellum samples were flash frozen in liquid nitrogen and stored at −80° C.
# In experiments, as herein described, the branaplam dose is provided as a solution of branaplam monohydrochloride salt (10 mg/mL suspension) in methyl cellulose, medium viscosity 400 cP for a 1% solution), Tween 80 (1% v/v), purified water suspension formulation.
# Total RNA from cerebrum and cerebellum was extracted using RNeasy Plus kit (Qiagen) after homogenized in Precellys at 6000 rpm for 40 sec. RNA from blood was extracted using PAXgene blood RNA kit (Qiagen) according to manufacturer protocol. The RNA was quantified by Nanodrop 2000 (Thermo Scientific). cDNAs were synthesized from 140-400 ng RNA using Maxima First strand cDNA synthesis kit using a mix of oligo dT and random hexamers (Thermo Scientific) in 20 uL reaction at 25° C. for 10 min, 50° C. for 15 min then 85° C. for 5 min. Quantitative PCR was performed using Taqman Fast Advanced master mix (Thermo Scientific) in 20 uL with 4 uL of cDNA reaction and primers specific for each genes. The PCR steps were as follows: 95° C. for 20 sec then 40 cycles of 95° C. for 1 sec, 55° C. for 20 sec. […] Relative quantification of gene expression was performed using 2^−ΔΔCT method. Fold changes in the mRNA expression level was calculated following normalization to mouse glucuronidase beta (Gusb) as an endogenous reference.
# [3] = single oral dose 10 or 50 mg/kg, listed as branaplam
structure (smiles),measurement,setting,value
"CC1(C)CC(Oc2ccc(-c3ccc(-c4cn[nH]c4)cc3O)nn2)CC(C)(C)N1 [Compound 18, 5-(1H-pyrazol-4-yl)-2-(6-((2,2,6,6-tetramethylpiperidin-4-yl)oxy)pyridazin-3-yl)phenol]",increase in novel-exon-containing HTT transcript,HTT transcript [1]; 5 nM-125 nM,100-500 fold
same,lowering of total Huntingtin transcript,HTT transcript [1]; 5 nM-125 nM,30-90 % of normal endogenous levels
same,EC50,"HTT transcript [1]; Homo sapiens, read-out: EC50 for lowering of HTT transcript",20 to 25 nM
same,novel-exon-containing HTT transcript levels in brain,"HTT transcript [2]; single oral dose 50 mg/kg, 48 h after dosing",trend towards return to vehicle levels
same,novel-exon-containing HTT transcript levels in brain,"HTT transcript [2]; single oral dose 10 or 50 mg/kg, 8 and 24 h after dosing, listed as branaplam",elevates; also recorded: dose dependent increase
same,total HTT transcript levels in brain,"HTT transcript [2]; single oral dose 10 or 50 mg/kg, 8 h and 24 h, listed as branaplam","lowers; also recorded: lowering trend at 8 h; also recorded: greater degree of lowering at the 50 mg/kg level, 24 hours post-dosing"
same,novel-exon-containing HTT transcript levels in blood,HTT transcript [2]; [3],elevates; also recorded: robust modulation
same,total HTT transcript levels in blood,HTT transcript [2]; [3],lowers; also recorded: lowering
